According to US20240398784A1, “C-LINKED ISOQUINOLINE AMIDES AS LRRK2 INHIBITORS, PHARMACEUTICAL COMPOSITIONS, AND USES THEREOF” (Merck Sharp & Dohme LLC, priority 2021, published 2024):

target: LRRK2 G2019S (Homo sapiens, UniProt Q5S007, G2019S); test: LRRK2 G2019S Km ATP LanthaScreen assay; type: biochemical; conditions: read-out: LRRK2 pIC50 (converted)
Experimental: Unless otherwise noted, all reactions are magnetically stirred. Unless otherwise noted, when diethyl ether is used in the experiments described below, it is Fisher ACS certified material and is stabilized with BHT. Unless otherwise noted, “concentrated” and/or “solvent removed under reduced pressure” means evaporating the solvent from a solution or mixture using a rotary evaporator or vacuum pump. Unless otherwise noted, flash chromatography is carried out on a Teledyne Isco (Lincoln, NE), Analogix (Burlington, WI), or Biotage (Stockholm, SWE) automated chromatography system using a commercially available cartridge as the column. Columns may be purchased from Teledyne Isco, Analogix, Biotage, Varian (Palo Alto, CA), or Supelco (Bellefonte, PA) and are usually filled with silica gel as the stationary phase. Reverse phase prep-HPLC conditions, where used, can be found at the end of each experimental section. Aqueous solutions were concentrated on a Genevac (Ipswich, ENG) or by freeze-drying/lyophilization.

LRRK2 G2019S, sequence (Q5S007 whole entry G2019S): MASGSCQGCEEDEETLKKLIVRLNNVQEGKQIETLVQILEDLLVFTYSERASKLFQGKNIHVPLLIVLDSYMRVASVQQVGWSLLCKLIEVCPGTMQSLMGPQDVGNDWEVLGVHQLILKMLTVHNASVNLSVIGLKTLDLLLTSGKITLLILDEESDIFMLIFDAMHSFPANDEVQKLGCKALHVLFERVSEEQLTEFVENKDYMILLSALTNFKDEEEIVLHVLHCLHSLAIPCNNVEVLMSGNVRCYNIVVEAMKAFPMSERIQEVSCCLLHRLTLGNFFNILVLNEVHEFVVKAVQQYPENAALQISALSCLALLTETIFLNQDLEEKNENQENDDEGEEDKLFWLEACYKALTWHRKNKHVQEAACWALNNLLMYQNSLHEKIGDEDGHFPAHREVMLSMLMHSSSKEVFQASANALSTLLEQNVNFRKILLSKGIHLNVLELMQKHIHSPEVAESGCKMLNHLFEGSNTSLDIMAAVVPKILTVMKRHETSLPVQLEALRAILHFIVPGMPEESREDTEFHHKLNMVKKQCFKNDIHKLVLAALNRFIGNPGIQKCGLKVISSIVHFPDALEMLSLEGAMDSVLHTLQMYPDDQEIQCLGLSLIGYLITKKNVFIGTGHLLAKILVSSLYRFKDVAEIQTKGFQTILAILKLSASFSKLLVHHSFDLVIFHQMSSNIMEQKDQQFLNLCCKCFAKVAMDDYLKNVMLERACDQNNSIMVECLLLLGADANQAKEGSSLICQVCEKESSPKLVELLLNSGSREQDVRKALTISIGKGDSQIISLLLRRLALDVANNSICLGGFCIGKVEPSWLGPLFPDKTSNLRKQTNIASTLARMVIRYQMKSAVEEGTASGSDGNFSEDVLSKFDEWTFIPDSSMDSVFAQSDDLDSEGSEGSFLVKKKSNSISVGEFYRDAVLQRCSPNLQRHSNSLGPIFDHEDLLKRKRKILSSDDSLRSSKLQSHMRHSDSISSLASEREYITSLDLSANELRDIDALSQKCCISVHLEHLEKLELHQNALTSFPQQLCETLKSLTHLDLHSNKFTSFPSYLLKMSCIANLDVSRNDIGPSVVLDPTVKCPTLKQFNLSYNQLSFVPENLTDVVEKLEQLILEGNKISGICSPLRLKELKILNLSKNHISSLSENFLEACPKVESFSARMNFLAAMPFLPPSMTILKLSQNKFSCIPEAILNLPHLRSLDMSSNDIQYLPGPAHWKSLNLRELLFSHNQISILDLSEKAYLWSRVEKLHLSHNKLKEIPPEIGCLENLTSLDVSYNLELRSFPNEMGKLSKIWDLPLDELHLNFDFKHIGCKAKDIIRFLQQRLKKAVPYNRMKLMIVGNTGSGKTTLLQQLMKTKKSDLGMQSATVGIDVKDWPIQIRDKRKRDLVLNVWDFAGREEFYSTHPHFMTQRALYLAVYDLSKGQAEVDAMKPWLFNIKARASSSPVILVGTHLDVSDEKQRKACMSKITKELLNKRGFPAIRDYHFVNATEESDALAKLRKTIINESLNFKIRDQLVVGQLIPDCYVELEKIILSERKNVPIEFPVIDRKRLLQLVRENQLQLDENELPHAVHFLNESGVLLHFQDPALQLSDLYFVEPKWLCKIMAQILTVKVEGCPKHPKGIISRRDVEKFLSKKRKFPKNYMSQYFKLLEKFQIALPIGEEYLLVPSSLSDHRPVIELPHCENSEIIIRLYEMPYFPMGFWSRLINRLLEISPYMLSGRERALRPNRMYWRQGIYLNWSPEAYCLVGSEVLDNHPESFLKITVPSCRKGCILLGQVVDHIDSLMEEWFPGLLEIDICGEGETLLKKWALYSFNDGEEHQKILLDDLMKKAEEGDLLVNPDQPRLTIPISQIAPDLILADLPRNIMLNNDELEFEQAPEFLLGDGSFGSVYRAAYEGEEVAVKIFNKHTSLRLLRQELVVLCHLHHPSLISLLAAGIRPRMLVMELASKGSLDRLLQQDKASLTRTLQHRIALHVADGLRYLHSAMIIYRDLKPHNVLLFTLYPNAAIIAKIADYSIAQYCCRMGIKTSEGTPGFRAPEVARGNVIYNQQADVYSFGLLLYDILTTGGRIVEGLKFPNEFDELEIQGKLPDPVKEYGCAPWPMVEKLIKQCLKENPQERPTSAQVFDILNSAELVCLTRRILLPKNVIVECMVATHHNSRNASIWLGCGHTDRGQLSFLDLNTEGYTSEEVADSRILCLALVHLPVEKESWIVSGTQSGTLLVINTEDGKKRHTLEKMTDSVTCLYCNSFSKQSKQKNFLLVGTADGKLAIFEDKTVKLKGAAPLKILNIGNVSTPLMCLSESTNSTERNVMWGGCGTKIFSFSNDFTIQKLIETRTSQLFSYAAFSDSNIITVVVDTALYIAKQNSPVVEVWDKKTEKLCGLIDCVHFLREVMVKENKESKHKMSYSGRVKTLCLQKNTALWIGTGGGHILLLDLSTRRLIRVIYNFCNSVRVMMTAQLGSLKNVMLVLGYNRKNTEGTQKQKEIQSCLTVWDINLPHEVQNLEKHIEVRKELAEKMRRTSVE

IC50 | Structure (SMILES)
0.0813 nM | Cc1cc2cnc(NC(=O)C3CC34CC4)cc2cc1C1CCN(C2(C)COCC2O)CC1 (single isomer, unassigned) [Ex-16.13, N-(6-(1-(4-hydroxy-3-methyltetrahydrofuran-3-yl)piperidin-4-yl)-7-methylisoquinolin-3-yl)spiro[2.2]pentane-1-carboxamide]
5.62 nM | CC1(C)CCC(C(=O)Nc2cc3cc(C4CCC(N5CCC(F)C5)CC4)c(Cl)cc3cn2)CO1 (single isomer, unassigned) [Ex-5.17, N-(7-chloro-6-(4-(3-fluoropyrrolidin-1-yl)cyclohexyl)isoquinolin-3-yl)-6,6-dimethyltetrahydro-2H-pyran-3-carboxamide]
110 nM | CC1COCC1(C)N1CCC(c2cc3cc(NC(=O)C4CC45CCOCC5)ncc3cc2Cl)CC1 (single isomer, unassigned) [Ex-6.10, N-(7-chloro-6-(1-(3,4-dimethyltetrahydrofuran-3-yl)piperidin-4-yl)isoquinolin-3-yl)-6-oxaspiro[2.5]octane-1-carboxamide]
0.0813 nM | CN(C)C1CCC2C(C(=O)Nc3cc4cc(C5CCN(C6(C)COCC6O)CC5)c(Cl)cc4cn3)C21 (single isomer, unassigned) [Ex-4.28, N-(7-chloro-6-(1-(4-hydroxy-3-methyltetrahydrofuran-3-yl)piperidin-4-yl)isoquinolin-3-yl)-2-(dimethylamino)bicyclo[3.1.0]hexane-6-carboxamide]
22.4 nM | CC(C)n1nccc1C1CC1C(=O)Nc1cc2cc(C3CCN(C4(C)COCC4O)CC3)c(Cl)cc2cn1 (single isomer, unassigned) [Ex-4.63, N-(7-chloro-6-(1-(4-hydroxy-3-methyltetrahydrofuran-3-yl)piperidin-4-yl)isoquinolin-3-yl)-2-(1-isopropyl-1H-pyrazol-5-yl)cyclopropane-1-carboxamide]
135 nM | CC1(N2CCC(c3cc4cc(NC(=O)C5CC5c5cc(F)ccn5)ncc4cc3Cl)CC2)COCC1O (single isomer, unassigned) [Ex-4.39, N-(7-chloro-6-(1-(4-hydroxy-3-methyltetrahydrofuran-3-yl)piperidin-4-yl)isoquinolin-3-yl)-2-(4-fluoropyridin-2-yl)cyclopropane-1-carboxamide]
27.5 nM | Cn1cc(C(C)(C)C(=O)Nc2cc3cc(C4CCN(C5(C)COCC5F)CC4)c(Cl)cc3cn2)cn1 (single isomer, unassigned) [Ex-6.54, N-(7-chloro-6-(1-(4-fluoro-3-methyltetrahydrofuran-3-yl)piperidin-4-yl)isoquinolin-3-yl)-2-methyl-2-(1-methyl-1H-pyrazol-4-yl)propenamide]
7.41 nM | N#CC1(c2cc3cc(NC(=O)C4CC4c4ccccn4)ncc3cc2F)CC12CC2 (single isomer, unassigned) [Ex-18.13, (1R,2R or 1S,2S)-N-(6-((R or S)-1-cyanospiro[2.2]pentan-1-yl)-7-fluoroisoquinolin-3-yl)-2-(pyridin-2-yl)cyclopropane-1-carboxamide]
0.708 nM | CC1(C)COCC1(C)N1CCC(c2cc3cc(NC(=O)C4CC45CCOCC5)ncc3cc2Cl)CC1 (single isomer, unassigned) [Ex-6.18, N-(7-chloro-6-(1-(3,4,4-trimethyltetrahydrofuran-3-yl)piperidin-4-yl)isoquinolin-3-yl)-6-oxaspiro[2.5]octane-1-carboxamide]
0.0813 nM | Cc1cc2cnc(NC(=O)C3CC3c3ccccn3)cc2cc1C1CCN(C2(C)CCOC2)CC1 (single isomer, unassigned) [Ex-16.12, N-(7-methyl-6-(1-(3-methyltetrahydrofuran-3-yl)piperidin-4-yl)isoquinolin-3-yl)-2-(pyridin-2-yl)cyclopropane-1-carboxamide]
2.04 nM | N#CC1(c2ccc3cnc(NC(=O)C4CC4c4ccccn4)cc3c2)CC12CC2 (centres unmarked) [Ex-2.38]
0.0912 nM | CC(C)(O)C1CC1C(=O)Nc1cc2cc(C3CCN(C4(C)COCC4O)CC3)c(Cl)cc2cn1 (single isomer, unassigned) [Ex-1.21, (1R,2R or 1S,2S)-N-(7-chloro-6-(1-((3R,4R or 3S,4S)-4-hydroxy-3-methyltetrahydrofuran-3-yl)piperidin-4-yl)isoquinolin-3-yl)-2-(2-hydroxypropan-2-yl)cyclopropane-1-carboxamide]
135 nM | CCC(=O)N1CCC(C(C)C(=O)Nc2cc3cc(C4(C#N)CC45CC5)ccc3cn2)CC1 (centres unmarked) [Ex-2.112]
5.62 nM | CCOC1CC2(C1)CC2C(=O)Nc1cc2cc(C3CCN(C4(C)COCC4O)CC3)c(Cl)cc2cn1 (single isomer, unassigned) [Ex-4.31, N-(7-chloro-6-(1-(4-hydroxy-3-methyltetrahydrofuran-3-yl)piperidin-4-yl)isoquinolin-3-yl)-5-ethoxyspiro[2.3]hexane-1-carboxamide]
1.51 nM | Cc1ccc(C2CC2C(=O)Nc2cc3cc(C4CCN(C5(C)COCC5O)CC4)c(Cl)cc3cn2)s1 (single isomer, unassigned) [Ex-4.58, N-(7-chloro-6-(1-(4-hydroxy-3-methyltetrahydrofuran-3-yl)piperidin-4-yl)isoquinolin-3-yl)-2-(5-methylthiophen-2-yl)cyclopropane-1-carboxamide]
1.91 nM | CC(C(=O)Nc1cc2cc(C3(C#N)CC34CC4)ccc2cn1)c1cnn(C)c1 (centres unmarked) [Ex-2.109]
661 nM | CC1(N2CCC(c3cc4cc(NC(=O)C5CCC5c5ccccn5)ncc4cc3Cl)CC2)COCC1O (single isomer, unassigned) [Ex-4.73, N-(7-chloro-6-(1-(4-hydroxy-3-methyltetrahydrofuran-3-yl)piperidin-4-yl)isoquinolin-3-yl)-2-(pyridin-2-yl)cyclobutane-1-carboxamide]
0.562 nM | CC1(N2CCC(c3cc4cc(NC(=O)C5CC5C(F)F)ncc4cc3Cl)CC2)COCC1O (single isomer, unassigned) [Ex-4.44, N-(7-chloro-6-(1-(4-hydroxy-3-methyltetrahydrofuran-3-yl)piperidin-4-yl)isoquinolin-3-yl)-2-(difluoromethyl)cyclopropane-1-carboxamide]
0.0813 nM | CC1(N2CCC(c3cc4cc(NC(=O)C5CC5C5CCOCC5)ncc4cc3Cl)CC2)COCC1O (single isomer, unassigned) [Ex-4.67, N-(7-chloro-6-(1-(4-hydroxy-3-methyltetrahydrofuran-3-yl)piperidin-4-yl)isoquinolin-3-yl)-2-(tetrahydro-2H-pyran-4-yl)cyclopropane-1-carboxamide]
15.1 nM | CC1C(C(=O)Nc2cc3cc(C4CCN(C5(C)COCC5O)CC4)c(Cl)cc3cn2)C1c1ccccn1 (single isomer, unassigned) [Ex-4.52, N-(7-chloro-6-(1-(4-hydroxy-3-methyltetrahydrofuran-3-yl)piperidin-4-yl)isoquinolin-3-yl)-2-methyl-3-(pyridin-2-yl)cyclopropane-1-carboxamide]
0.0813 nM | CCOC1CC2(C1)CC2C(=O)Nc1cc2cc(C3CCN(C4(C)COCC4F)CC3)c(C)cc2cn1 (single isomer, unassigned) [Ex-16.5, 5-ethoxy-N-(6-(1-(4-fluoro-3-methyltetrahydrofuran-3-yl)piperidin-4-yl)-7-methylisoquinolin-3-yl)spiro[2.3]hexane-1-carboxamide]
9.33 nM | O=C(Nc1cc2cc(C3CCN(C4COC4)CC3)c(Cl)cc2cn1)[C@@H]1C[C@@H](O)[C@H](F)C1 [Ex-1.12, (1R,3R,4R)-N-(7-chloro-6-(1-(oxetan-3-yl)piperidin-4-yl)isoquinolin-3-yl)-3-fluoro-4-hydroxycyclopentane-1-carboxamide]
5.13 nM | CC1(N2CCC(c3cc4cc(NC(=O)C5CCC(C(F)(F)F)OC5)ncc4cc3Cl)CC2)COCC1O (centres unmarked) [Ex-2.62]
5.62 nM | Cc1cc2cnc(NC(=O)C3CC3c3ccccn3)cc2cc1C1CCN(C2(C)COCC2O)CC1 (single isomer, unassigned) [Ex-4.77, N-(6-(1-(4-hydroxy-3-methyltetrahydrofuran-3-yl)piperidin-4-yl)-7-methylisoquinolin-3-yl)-2-(pyridin-2-yl)cyclopropane-1-carboxamide]
21.9 nM | Cn1cc(C(=O)Nc2cc3cc(C4CCN([C@]5(C)COC[C@@H]5O)CC4)c(Cl)cc3cn2)cn1 (single isomer, unassigned) [Ex-12.7, N-(7-chloro-6-(1-(4-hydroxy-3-methyltetrahydrofuran-3-yl)piperidin-4-yl)isoquinolin-3-yl)-1-methyl-1H-pyrazole-4-carboxamide]
0.398 nM | N#CC1(c2ccc3cnc(NC(=O)C4CC45CC5)cc3c2)CC12CC2 (single isomer, unassigned) [Ex-2.2]
45.7 nM | CC1(N2CCC(c3cc4cc(NC(=O)C5CC5c5cccnc5)ncc4cc3Cl)CC2)COCC1O (single isomer, unassigned) [Ex-4.41, N-(7-chloro-6-(1-(4-hydroxy-3-methyltetrahydrofuran-3-yl)piperidin-4-yl)isoquinolin-3-yl)-2-(pyridin-3-yl)cyclopropane-1-carboxamide]
4270 nM | CC1(C)CCC(C(=O)Nc2cc3cc(C4CCC(N5CCC(F)C5)CC4)c(Cl)cc3cn2)CO1 (single isomer, unassigned) [Ex-5.24, N-(7-chloro-6-(4-(3-fluoropyrrolidin-1-yl)cyclohexyl)isoquinolin-3-yl)-6,6-dimethyltetrahydro-2H-pyran-3-carboxamide]
1.45 nM | Cn1cc(C2CC2C(=O)Nc2cc3cc(C4CCN(C5(C)COCC5F)CC4)c(Cl)cc3cn2)cn1 (single isomer, unassigned) [Ex-6.30, N-(7-chloro-6-(1-(4-fluoro-3-methyltetrahydrofuran-3-yl)piperidin-4-yl)isoquinolin-3-yl)-2-(1-methyl-1H-pyrazol-4-yl)cyclopropane-1-carboxamide]
